From patent US20240285780A1 (priority 2020, published 2024)
“And” between values parts separate entries of the source, which are not always exact repeats. Equal values may be shown once. Where a SMILES comes first, the peptide text is derived from it. [ ]: non-standard residue; d: D form. The star is where a group is joined. Trolox = Cc1c(C)c2c(c(C)c1O)CCC(C)(C(=O)*)O2; Cha = N[CH](CC1CCCCC1)C(=O)O

How the values were obtained:
[1] = tested on: neuroblastoma-derived cell line (SH-SY5Y); format: cell-based
Elastin = format: cell-based, mouse
Sprague-Dawley rats = details: rat, in vivo
Fibronectin = format: cell-based, mouse
[2] = tested on: collagen type I alpha 1 (Col1a1); format: cell-based, mouse

In the case of CCC(C)C(NC(=O)C(CC(C)C)NC(=O)C(CC1CCCCC1)NC(=O)C(CCCCN)NC(=O)C1(C)CCc2c(C)c(O)c(C)c(C)c2O1)C(=O)NC(CCCCN)C(=O)O (stereo not drawn) [trolox-peptide conjugate] (Trolox-K[Cha]LIK-OH; configuration not given here), the release of acetylcholine [1] is reported as “significantly inhibited”, the “expression level of elastin” value (Elastin) is reported as “significantly increased” and the “DAS Score” value (Sprague-Dawley rats) is reported as 4 and 2 and 3. For the same compound, the “duration of the muscle relaxation effect” value (Sprague-Dawley rats) was “lasted longer”, the “expression level of fibronectin” value (Fibronectin) was “significantly increased” and the “expression level of collagen (Col1a1)” value [2] was “significantly increased”.
